Measured values reported in patent US20230117205A1, “B7-H4 ANTIBODY-DRUG CONJUGATES FOR THE TREATMENT OF CANCER” (SEAGEN INC., priority 2021, published 2023).

How the values were obtained:
HR+ BC PDX models = experiment: HR+ breast cancer patient-derived xenograft models; format: in vivo, mice; conditions: for % TGI: 3 mg/kg q7dx3, vs untreated
Method: Specifically, Stock mice were bilaterally implanted with fragments from one of the Champions TumorGraft® models representing human HR^+ BC or ovarian cancer. After the tumors reached 1000-1500 mm^3, they were harvested, and the tumor fragments were implanted subcutaneously (s.c.) in the left flank of the female study mice. Each animal was implanted with a specific passage lot and documented. Tumor growth was monitored twice a week using digital calipers, and the tumor volume (TV) was calculated using the formula (0.52×[length×width^2]). When the TV reached approximately 150-300 mm^3, animals were matched by tumor size and assigned into control (untreated) or treatment groups (n=3 animals/group). Each animal in the treatment groups was dosed with 3 mg/kg of ADC every seven days for three total doses (q7dx3). […]
Inhibition of tumor growth was determined by calculating the percent TGI on the day at which animals in the control group were terminated (100%×[1−(final MTV−initial MTV of a treated group)/(final MTV−initial MTV of the control group)]). Treatment started on Day 0.

MDA-MB-468 = experiment: In vitro cytotoxicity, 96-hour 3D spheroid, CellTiter-Glo; format: cell-based, human
Method: (§1) The cytotoxicity was evaluated when cells were grown in 3D spheroid (round bottom, ultra-low attachment plates) conditions.
(§2) Cancer cell lines expressing B7-H4 (SKBR3, MX-1, and MDA-MB-468) as well as a non-B7-H4-expressing cell line (MDA-MB-231) were thawed from cryovials stored at […] into complete growth media and allowed to grow and recover from thaw at 37° C. and 5% CO2 until cell viability determined by Vi-CELL XR (Beckman Coulter, Indianapolis, Ind.) were above 90%. Cells were then counted and plated at 2000, 2200, 2200, and 2200 cells/well respectively. Cells were plated in 150 μL complete growth media in round bottom, black walled, ultra-low attachment, 96-well plates (Corning 4520). Cell plates were placed at 37° C. and 5% CO2 overnight to allow cells to adhere. ADCs were thawed and 4×8-point serial dilutions were prepared (final dose range 1000-0.061 ng/mL) in RPMI 1640+20% FBS. Fifty μL of each dilution were then added to each cell plate in triplicate. Cells were then left to incubate at 37° C. and 5% CO2 for 96 hours. Cell plates were then removed from the incubator and allowed to cool to room temperature for 30 minutes. CellTiter-Glo® luminescent assay (Promega Corporation, Madison, Wis.) was prepared according to Promega's protocol. One hundred uL CellTiter-Glo® were added to assay plates using a Formulatrix Tempest liquid handler (Formulatrix, Inc.) and plates were heat sealed using an ALPS300 automated microplate heat sealer (Thermo Scientific) and protected from light for 30 minutes at room temperature. The luminescence of each plate was then determined using an EnVision Multilabel plate reader (Perkin Elmer, Waltham, Mass.). […] One hundred uL of lysed spheroid suspension was then transferred to a black walled, flat bottom 96 well plate and read on the EnVision Multilabel plate reader (Perkin Elmer, Waltham, Mass.). Raw data were then analyzed in Graphpad Prism (San Diego, Calif.) using a non-linear, 4-parameter curve fit model (Y=Bottom+[Top-Bottom]/[1+10^[[Log EC50-X]×HillSlope]]). […]

SKBR3 = experiment: as above; format: cell-based, human
Method: as §1, §2

MDA-MB-231 = experiment: as above; format: cell-based, human; conditions: MDA-MB-231 (non-B7-H4-expressing)
Method: as §1, §2

[1] = tested on: MDA-MB-468 xenograft tumors; experiment: RNAseq of treated MDA-MB-468 xenograft tumors; format: in vivo, NSG mice; conditions: single 3 mg/kg dose; compared to vehicle control
Method: Specifically, female NSG mice were implanted with 1×10^6 MDA-MB-468 cells in 25% Matrigel H C subcutaneously. Once tumor volumes reached ˜250-300 mm^3, mice were randomized into treatment groups of 6 mice each and treated with a single 3 mg/kg dose of ADC or mAb, or vehicle control (20 mM Histidine buffer, pH 6.0) injected intraperitoneally (i.p.). Stock concentrations of ADC were diluted to desired concentration with 20 mM Histidine buffer, pH 6.0 or and stock concentration of mAb were diluted to desired concentration with 0.01% Tween20 in PBS. Twenty-four hours prior to dosing, each animal was treated with 10 mg/kg hIVIG. One week following treatment, tumors were harvested, cut in half, and processed for RNAseq (frozen at −80° C.) or formalin-fixed and paraffin-embedded for immunohistochemical (IHC) analysis.
For RNAseq, RNA was extracted from tumors and library preparation for […] sequencing was performed using PolyA selection. RNA was sequenced using the Illumina HiSeq platform 2×150 bp configuration. […] Adaptors were trimmed using cutadapt version 1.16, reads were aligned to a composite (GRCh38(h38)/GRCm38(mm10)) genome using STAR version 2.5.2. Transcripts and genes were quantitated via RSEM version 1.2.31. Quantitative and statistical differences were determined between groups of samples using DESeq2 version 1.28.1. […]

hFcγRIIb = biological target: T1, hFcγRIIb (Homo sapiens, UniProt P31994); experiment: BLI binding to human Fc receptors; conditions: low data quality
T1 construct: made in house
T1 sequence (P31994 43-310): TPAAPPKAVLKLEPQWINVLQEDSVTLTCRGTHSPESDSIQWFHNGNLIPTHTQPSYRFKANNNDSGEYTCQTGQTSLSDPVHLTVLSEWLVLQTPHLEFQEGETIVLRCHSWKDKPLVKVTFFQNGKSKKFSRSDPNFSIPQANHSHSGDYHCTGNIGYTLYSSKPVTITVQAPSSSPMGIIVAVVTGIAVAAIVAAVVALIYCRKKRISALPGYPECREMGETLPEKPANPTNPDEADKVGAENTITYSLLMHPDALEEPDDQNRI

## SGN-B7H4V: ADC of fully human IgG1 anti-B7-H4 mAb conjugated to monomethyl auristatin E (MMAE) via a protease-cleavable valine-citrulline linker (vedotin)
HR+ BC PDX models; HR+ BC, 3 mg/kg, 3 weekly doses
  PDX models with antitumor activity: ⅙
HR+ BC PDX models; HR+ BC_1, Day 38
  % TGI: 7%
HR+ BC PDX models; HR+ BC_2, Day 34
  % TGI: 79%
HR+ BC PDX models; HR+ BC_3, Day 16
  % TGI: 28%
HR+ BC PDX models; HR+ BC_4, Day 59
  % TGI: 12%
HR+ BC PDX models; HR+ BC_5, Day 59
  % TGI: 11%
HR+ BC PDX models; HR+ BC_6, Day 62
  % TGI: 16%
MDA-MB-468
  ×50: 105 ng/mL
SKBR3
  ×50: 4 ng/mL
MDA-MB-231
  ×50: >1000 ng/mL
[1]
  upregulation of human transcripts encoding cytokines (CXCL10 and CXCL1): 2-3 fold
hFcγRIIb
  affinity: weakest affinity
